According to US10201532B2, “Compounds and their use” (ALLECRA THERAPEUTICS GMBH, priority 2010, dated 2019):

Key:
E. coli BAA-197 (TEM-12) = assay: MIC of Piperacillin with inhibitor, ESBL isolates; assay type: cell-based, Escherichia coli
E. coli BAA-200 (SHV-4) = assay: MIC of Piperacillin with inhibitor, ESBL isolates; assay type: cell-based, Escherichia coli
E. coli BAA-201 (TEM-3) = assay: MIC of Piperacillin with inhibitor, ESBL isolates; assay type: cell-based
[1] = tested on: K. pneumoniae ATCC 700603 (SHV18); assay: Disk zone of inhibition, antibiotic + Compound-1 on same disk (Methodology 2); assay type: cell-based, Klebsiella pneumoniae
Description: In this experiment, Compound-1 is used as a diagnostic reagent for the detection of β-lactamases belonging to the families KPC & ESBL (e.g., SHV18) producing Enterobacteriaceae. A simple set of absorbent paper disks impregnated with antibiotic on agar medium is used for the detection.
• 0.5 McFarland of the test organism was inoculated at 1:10 dilution on Muller • Hinton Agar plates • Test organisms: Klebsiella pneumoniae (K.p) ATCC BAA-1705, Klebsiella pneumoniae ATCC 700603, Escherichia coli (E.c) Ecoli233 • Carbapenem (e.g., Imipenem [IPM] 10 μg) and cephalosporin (e.g., Ceftazidime [CAZ] 30 μg) paper disks (7 mm) were placed on the inoculated agar plates • Compound-1 (60 μg) disk was placed at a distance of 7 & 10 mm from the carbapenem and cephalosporin disks. • The presence of expressed carbapenemases or ESBLs was measured as the expansion of Imipenem or Ceftazidime's inhibition zones due to synergy in the presence of Compound-1. Results:
The methodology remains the same as Methodology 1 except the following change • Compound-1 (60 μg) was added on the same disk in combination with a carbapenem (e.g., Imipenem 10 μg) or cephalosporin (e.g., Ceftazidime 30 μg) and placed on the inoculated agar plate. • The presence of the expressed carbapenemases or ESBLs was measured as an increase in Imipenem or Ceftazidime's zone diameter in combination with Compound-1 compared to antibiotic alone. Results

Row | SMILES | MIC of Piperacillin with inhibitor (E. coli BAA-197 (TEM-12); inhibitor at 1 μg/mL) | MIC of Piperacillin with inhibitor (E. coli BAA-197 (TEM-12); inhibitor at 2 μg/mL) | MIC of Piperacillin with inhibitor (E. coli BAA-197 (TEM-12); inhibitor at 4 μg/mL) | MIC of Piperacillin with inhibitor (E. coli BAA-200 (SHV-4); inhibitor at 1 μg/mL) | MIC of Piperacillin with inhibitor (E. coli BAA-200 (SHV-4); inhibitor at 2 μg/mL) | MIC of Piperacillin with inhibitor (E. coli BAA-200 (SHV-4); inhibitor at 4 μg/mL) | MIC of Piperacillin with inhibitor (E. coli BAA-201 (TEM-3); inhibitor at 1 μg/mL) | MIC of Piperacillin with inhibitor (E. coli BAA-201 (TEM-3); inhibitor at 2 μg/mL) | MIC of Piperacillin with inhibitor (E. coli BAA-201 (TEM-3); inhibitor at 4 μg/mL) | ZOI of CAZ + Compound-1 ([1]; Ceftazidime 30 μg + Compound-1 60 μg on same disk) | ZOI of IPM + Compound-1 ([1]; Imipenem 10 μg + Compound-1 60 μg on same disk)
1 | C[C@]1(Cn2ccnn2)[C@H](C(=O)O)N2C(=O)C[C@H]2S1(=O)=O [Tazobactam] | 64 µg/mL | 8 µg/mL | 4 µg/mL | >128 µg/mL | >128 µg/mL | 4 µg/mL | 4 µg/mL | 4 µg/mL | 2 µg/mL | – | –
2 | C[n+]1ccn(C[C@@]2(C)[C@H](C(=O)[O-])N3C(=O)C[C@H]3S2(=O)=O)n1 [Compound-1, 1-{[(2S,3S,5R)-2-Carboxy-3-methyl-4,4,7-trioxo-4-thia-1-azabicyclo[3.2.0]hept-3-yl]methyl}-3-methyl-1H-1,2,3-triazol-3-ium] | – | – | – | – | – | – | – | – | – | 23 mm | 25 mm
